PMC13064039, “Exploring the binding interaction of rupatadine with bovine serum albumin using multi-spectroscopic and molecular modeling approaches” (BMC Chemistry, 2026)

Tests used:
[1] = biological target: T1, bovine serum albumin (BSA) (Bos taurus, UniProt P02769); assay: FT-IR spectroscopy of BSA with and without RUPA; settings: BSA 2 µM + RUPA 40 µM, pH 7.4, 303 K; free BSA 1646
[2] = test system: ovarian cancer cells (platelet-activating factor receptor); design: method as in PMID 34571986; settings: in vitro; targets the platelet-activating factor receptor; cited from earlier work
[3] = biological target: T1, bovine serum albumin (BSA); assay: Fluorescence quenching of BSA by RUPA (Stern-Volmer, modified Stern-Volmer, van't Hoff analysis); type: binding; settings: for Ksv (Stern-Volmer quenching constant): BSA 2 µM, RUPA 0-100 µM
Method: The fluorescence data were corrected for the inner filter effect (IFE) according to the Lakowicz method to ensure that the obtained binding parameters were not impacted by absorption artifacts.
To account for the possible influence of inner filter effects (IFE), the fluorescence intensities were corrected using the following formula (Eq. 1): 1
The process of fluorescence quenching was determined using the Stern-Volmer equation (Eq. 2): 2
The KSV and Kq values were determined by the graph of F0/F against [Q]
Stoichiometric analysis is used to define the various equilibria for a macromolecule’s binding of a ligand by binding sites (n). The number of binding sites (n) and the binding constant (Kb) were calculated using the modified Stern–Volmer equation (Eq. 3). 3
The thermodynamic characteristics of the binding reaction serve as the primary evidence for the binding force. Hydrogen bonds, hydrophobic forces, electrostatic interactions, van der Waals interactions, and other binding forces could all be present between small molecules and biomacromolecules. The temperature dependence of the binding constant was thus measured for this purpose at three distinct temperatures: 303, 310, and 318 K (Fig. 4).
The Gibbs–Helmholtz equation provided below was used to assess the free energy change (ΔG) value (Eq. 5).

[4] = biological target: T1, bovine serum albumin (BSA); assay: Synchronous fluorescence of BSA with RUPA; type: binding; settings: RUPA 0-100 µM, BSA 2 µM, 303 K
Source text: Using synchronous fluorescence, the influence of the ligand on the protein has been thoroughly investigated. The distinctive details regarding the protein’s Tyr and Trp residues can be gained by fixing the scanning interval (∆λ) between the excitation and emission wavelengths at 15 and 60 nm, respectively.

[5] = biological target: T1, bovine serum albumin (BSA); assay: Competitive binding analysis using site probes (phenylbutazone site I, diazepam site II); settings: site marker competition
Method: Phenylbutazone and diazepam are the site probes for sites Ⅰ and Ⅱ, respectively. The BSA and site probe concentrations in this experiment were maintained at 2 µM and 10 µM, respectively. Rupatadine concentrations ranged from 10 to 100 µM. After excitation at 279 nm, fluorescence intensity measurements were made at 341 nm. At 303 K, measurements were made.

[6] = design: method as in PMID 23160091; settings: cited from earlier work

T1 sequence (P02769 25-607): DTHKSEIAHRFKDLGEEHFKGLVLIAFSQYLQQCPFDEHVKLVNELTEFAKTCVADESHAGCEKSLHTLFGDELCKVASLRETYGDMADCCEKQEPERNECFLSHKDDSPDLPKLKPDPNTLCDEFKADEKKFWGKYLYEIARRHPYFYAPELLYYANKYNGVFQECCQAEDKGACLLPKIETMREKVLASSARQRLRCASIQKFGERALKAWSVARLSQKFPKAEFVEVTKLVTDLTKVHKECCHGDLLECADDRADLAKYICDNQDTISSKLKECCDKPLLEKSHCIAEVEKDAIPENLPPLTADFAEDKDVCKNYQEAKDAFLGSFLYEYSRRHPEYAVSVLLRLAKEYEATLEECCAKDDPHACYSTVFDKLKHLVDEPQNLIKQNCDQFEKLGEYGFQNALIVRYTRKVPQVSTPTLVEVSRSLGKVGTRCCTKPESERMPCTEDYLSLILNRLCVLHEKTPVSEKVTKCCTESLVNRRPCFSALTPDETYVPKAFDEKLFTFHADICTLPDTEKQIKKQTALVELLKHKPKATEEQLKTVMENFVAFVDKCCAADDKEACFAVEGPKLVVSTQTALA

## Cc1cncc(CN2CCC(=C3c4ccc(Cl)cc4CCc4cccnc43)CC2)c1 [RUPA, 13-chloro-2-[1-[(5-methylpyridin-3-yl)methyl]piperidin-4-ylidene]−4-azatricyclo [9.4.0.03,8] pentadeca-1(11),3(8),4,6,12,14-hexaene]
[1]
  amide I peak location of BSA following the RUPA reaction: 1642 cm^− 1
[2]
  effect on ovarian cancer cell proliferation and migration: prevent ovarian cancer cells from proliferating and migrating
[3]; 303 K
  n (number of binding sites): 0.57
[3]; 303 K, pH 7.4
  Ksv (Stern-Volmer quenching constant): 1.07 × 10^4 L.mol^− 1
[3]; 310 K
  n (number of binding sites): 0.83
[3]; 310 K, pH 7.4
  Ksv (Stern-Volmer quenching constant): 0.82 × 10^4 L.mol^− 1
[3]; 310 K, τ0 = 10^-8 s
  Kq (quenching rate constant): 0.82 × 10^12 L.mol^− 1.s^− 1
[3]; 318 K
  n (number of binding sites): 1.06
[3]; 318 K, pH 7.4
  Ksv (Stern-Volmer quenching constant): 0.48 × 10^4 L.mol^− 1
[3]; pH 7.4, 303 K
  ∆G^o (Gibbs free energy change): -3.4823 kcal/mol
[3]; pH 7.4, 318 K
  ∆G^o (Gibbs free energy change): -5.2287 kcal/mol
[3]; pH 7.4, van't Hoff, 303-318 K
  ∆H^o (enthalpy change): 31.7935 kcal/mol
  ∆S^o (entropy change): 0.487 KJ mol^− 1 K^− 1
[3]; within the examined temperature range
  enthalpy change (ΔH): 133.024 kJ mol^− 1
[4]; ∆λ = 15 nm (Tyr)
  shift in synchronous fluorescence: no shift
[4]; ∆λ = 60 nm (Trp)
  red shift of ∆λmax in synchronous fluorescence: about 2 nm
[5]
  binding site of RUPA on BSA: site I
[6]
  attached to plasma proteins: approximately 99%
